Data set [1] is described as follows: Relaxivity in Water and Plasma. Type of data set: physicochemical. Conditions: 20 MHz, 37° C; for relaxivity r1 (plasma): in plasma; for relaxivity r1 (H2O): in water. The procedure:
Relaxivity values (mM^-1 s^-1) have been determined in water and in plasma at 20 MHz and 37° C.

For data set [2], the system named is mice. As to the kind of experiment: Toxicity Studies in Mice, LD50 i.v. Type of data set: in vivo. An excerpt: The LD50 value of the tris(ligand) iron(III) complex of ligand IX, Fe-DIOLMAL, has been determined i.v. in mice and found to be ca. 20.0 mmol/kg bw.
Data set [3] concerns mice. The following applies: metal chloride salts in aqueous solution, i.p.; cited from earlier work.

Where two headings read alike, the source gives them in different places.

As a reminder, the LD50 is the dose at which mortality reaches 50%.

With `Cc1c([O-])c(=O)ccn1CCC(=O)O.Cc1c([O-])c(=O)ccn1CCC(=O)O.Cc1c([O-])c(=O)ccn1CCC(=O)O.[Fe+3]` [Fe-BETALA], in data set [1], the “relaxivity r1 (plasma)” value was determined as 2.1 mM⁻¹ s⁻¹ and the “relaxivity r1 (H2O)” value came out at 1.8 mM⁻¹ s⁻¹.

Regarding `Cc1c([O-])c(=O)ccn1CCO.Cc1c([O-])c(=O)ccn1CCO.Cc1c([O-])c(=O)ccn1CCO.[Fe+3]` [Fe-ETOHMAL], the LD50 result in data set [2] is recorded as “ca. 7.5 mmol/kg bw”. Moreover, in data set [1], the “relaxivity r1 (plasma)” value came to 2.0 mM⁻¹ s⁻¹ and the “relaxivity r1 (H2O)” value came to 1.7 mM⁻¹ s⁻¹.

As to `[Gd]` [gadolinium], the median lethal dose (LD50) in data set [3] is on record as 1.4 mmol/kg.

With `[Mn+2]` [manganese], in data set [3], the LD50 was 1.5 mmol/kg.

For the molecule iron, the 50% lethal dose (LD50) in data set [3] is given as 1.6 mmol/kg.

These data come from patent publication US6294152A, “Iron(III) complexes as contrast agents for image enhancement in magnetic resonance imaging” (The University of Toledo, priority 1999, dated 2001).
